Experiments:
barnyardgrass [1] = assay: Test A pre-/postemergence herbicide test; assay type: in vivo, Echinochloa crus-galli
Summary of the method: (§1)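 Visual injury rating on a 0–100 scale (0 no effect, 100 complete control) versus untreated controls, about ten days after treatment in greenhouse. Pre: directed soil spray onto seeded sandy loam. Post: spray to runoff on plants 2–10 cm tall at one- to two-leaf stage.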

large crabgrass [2] = assay: Test A pre-/postemergence herbicide test; assay type: in vivo, Digitaria sanguinalis
Summary of the method: as §1

giant foxtail [3] = assay: Test A pre-/postemergence herbicide test; assay type: in vivo, Setaria faberi
Summary of the method: as §1

morningglory [4] = assay: Test A pre-/postemergence herbicide test; assay type: in vivo, Ipomoea spp.
Summary of the method: as §1

redroot pigweed = assay: Test A pre-/postemergence herbicide test; assay type: in vivo, Amaranthus retroflexus
Summary of the method: as §1

velvetleaf [5] = assay: Test A pre-/postemergence herbicide test; assay type: in vivo, Abutilon theophrasti
Summary of the method: as §1

barnyardgrass [6] = assay: Test B pre-/postemergence herbicide test; assay type: in vivo, Echinochloa crus-galli; details: for Plant response rating, Barnyardgrass: preemergence; for Barnyardgrass plant response rating: postemergence, visual rating, scale 0 (no effect) to 100 (complete control)
Summary of the method: (§2)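 Herbicidal effect was judged by eye on a 0–100 scale after plants stood 13 to 15 days in the greenhouse following pre- or postemergence treatment with surfactant-containing formulations.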

Surinam grass = assay: Test B pre-/postemergence herbicide test; assay type: in vivo, Urochloa decumbens; details: for Plant response rating, Surinam Grass: preemergence; for Surinam Grass plant response rating: postemergence, visual rating, scale 0 (no effect) to 100 (complete control)
Summary of the method: (§3)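 Seeds were planted and treated preemergence with compounds formulated in a non-phytotoxic solvent mixture containing surfactant, while plants at the 1- to 4-leaf stage (2 to 18 cm) received postemergence sprays. Flooded paddy plants were grown to the 2-leaf stage. After 13 to 15 days in a greenhouse, injury was visually rated 0–100 against untreated controls.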

cocklebur = assay: Test B pre-/postemergence herbicide test; assay type: in vivo, Xanthium strumarium; details: for Plant response rating, Cocklebur: preemergence; for Cocklebur plant response rating: postemergence, visual rating, scale 0 (no effect) to 100 (complete control)
Summary of the method: as §2

corn = assay: Test B pre-/postemergence herbicide test; assay type: in vivo, Zea mays; details: for Plant response rating, Corn: preemergence; for Corn plant response rating: postemergence, visual rating, scale 0 (no effect) to 100 (complete control)
Summary of the method: as §3

large crabgrass [7] = assay: Test B pre-/postemergence herbicide test; assay type: in vivo, Digitaria sanguinalis; details: for Plant response rating, Crabgrass, Large: preemergence; for Crabgrass, Large plant response rating: postemergence, visual rating, scale 0 (no effect) to 100 (complete control)
Summary of the method: as §3

giant foxtail [8] = assay: Test B pre-/postemergence herbicide test; assay type: in vivo, Setaria faberi; details: for Plant response rating, Foxtail, Giant: preemergence; for Foxtail, Giant plant response rating: postemergence, visual rating, scale 0 (no effect) to 100 (complete control)
Summary of the method: as §3

lambsquarters = assay: Test B pre-/postemergence herbicide test; assay type: in vivo, Chenopodium album; details: for Plant response rating, Lambsquarters: preemergence; for Lambsquarters plant response rating: postemergence, visual rating, scale 0 (no effect) to 100 (complete control)
Summary of the method: as §3

morningglory [9] = assay: Test B pre-/postemergence herbicide test; assay type: in vivo, Ipomoea coccinea; details: for Plant response rating, Morningglory: preemergence; for Morningglory plant response rating: postemergence, visual rating, scale 0 (no effect) to 100 (complete control)
Summary of the method: as §2

pigweed = assay: Test B pre-/postemergence herbicide test; assay type: in vivo, Amaranthus retroflexus; details: for Plant response rating, Pigweed: preemergence; for Pigweed plant response rating: postemergence, visual rating, scale 0 (no effect) to 100 (complete control)
Summary of the method: as §3

rice [10] = assay: Test B pre-/postemergence herbicide test; assay type: in vivo, Oryza sativa; details: preemergence
Summary of the method: as §3

velvetleaf [11] = assay: Test B pre-/postemergence herbicide test; assay type: in vivo, Abutilon theophrasti; details: for Plant response rating, Velvetleaf: preemergence; for Velvetleaf plant response rating: postemergence, visual rating, scale 0 (no effect) to 100 (complete control)
Summary of the method: as §3

blackgrass = assay: Test B postemergence herbicide test; assay type: in vivo, Alopecurus myosuroides; details: postemergence, visual rating, scale 0 (no effect) to 100 (complete control)
Summary of the method: (§4)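 Treated at 2-leaf (paddy) or 1–4-leaf, 2–18 cm (postemergence); greenhouse 13–15 d; visual score vs control, 0 none to 100 complete control; dash = not tested.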

wheat = assay: Test B postemergence herbicide test; assay type: in vivo, Triticum aestivum; parameters: key to Wheat plant response rating: 0 = no effect, 100 = complete control; details: postemergence, 500 g ai/ha; visual rating, scale 0 (no effect) to 100 (complete control)
Summary of the method: (§5)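 Visual ratings, 0 (no effect) to 100 (complete control), made versus controls after 13–15 d greenhouse. Paddy plants treated at 2-leaf stage; postemergence plants at 1- to 4-leaf stage, 2–18 cm tall.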

wild oat = assay: Test B postemergence herbicide test; assay type: in vivo, Avena fatua; details: postemergence, visual rating, scale 0 (no effect) to 100 (complete control)
Summary of the method: as §5

rice [12] = assay: Test B flooded paddy test; assay type: in vivo, Oryza sativa; details: 1000 g ai/ha, visual rating, scale 0 to 100 (0 no effect, 100 complete control), 13 to 15 days
Summary of the method: as §5

[13] = tested on: small flower umbrella sedge; assay: Test B flooded paddy test; assay type: in vivo, Cyperus difformis; details: 1000 g ai/ha, visual rating, scale 0 to 100 (0 no effect, 100 complete control), 13 to 15 days
Summary of the method: as §4

ducksalad = assay: Test B flooded paddy test; assay type: in vivo, Heteranthera limosa; details: 1000 g ai/ha, visual rating, scale 0 to 100 (0 no effect, 100 complete control), 13 to 15 days
Summary of the method: as §4

barnyardgrass [14] = assay: Test B flooded paddy test; assay type: in vivo, Echinochloa crus-galli; details: 1000 g ai/ha, visual rating, scale 0 to 100 (0 no effect, 100 complete control), 13 to 15 days
Summary of the method: as §4

[15] = Postemergence, 500 g ai/ha, 0 to 100 scale, 0 no effect, 100 complete control
[16] = Postemergence, 2000 g ai/ha, 0 to 100 scale, 0 no effect, 100 complete control
[17] = Preemergence, 500 g ai/ha, visual rating, 0 to 100 scale (0 no effect, 100 complete control)
[18] = Preemergence, 2000 g ai/ha, visual rating, 0 to 100 scale (0 no effect, 100 complete control)
[19] = preemergence, 500 g ai/ha, visual injury, 0 to 100 scale (0 no effect, 100 complete control)
[20] = 500 g ai/ha, visual rating 0-100, 0 no effect, 100 complete control
[21] = 125 g ai/ha, 0 to 100 scale, 0 is no effect, 100 is complete control

CCn1nc(C(C)(C)C)cc1C(=O)Nc1nc(OC)cc(OC)n1 [Compound 166]
Barnyardgrass plant response rating (barnyardgrass [1]; [15]): 0
Plant response rating, Barnyardgrass (barnyardgrass [1]; [16]): 10
Barnyardgrass plant response rating (barnyardgrass [1]; [17]): 0
Barnyardgrass plant response rating (barnyardgrass [1]; [18]): 10
Crabgrass, Large plant response rating (large crabgrass [2]; [15]): 0
Plant response rating, Crabgrass, Large (large crabgrass [2]; [16]): 0
Crabgrass, Large plant response rating (large crabgrass [2]; [17]): 0
Crabgrass, Large plant response rating (large crabgrass [2]; [18]): 30
Foxtail, Giant plant response rating (giant foxtail [3]; [15]): 0
Plant response rating, Foxtail, Giant (giant foxtail [3]; [16]): 20
Foxtail, Giant plant response rating (giant foxtail [3]; [17]): 0
Foxtail, Giant plant response rating (giant foxtail [3]; [18]): 10
Morningglory plant response rating (morningglory [4]; [15]): 0
Plant response rating, Morningglory (morningglory [4]; [16]): 10
Morningglory plant response rating (morningglory [4]; [17]): 0
Morningglory plant response rating (morningglory [4]; [18]): 5
Pigweed plant response rating (redroot pigweed; [15]): 20
Plant response rating, Pigweed (redroot pigweed; [16]): 25
Pigweed plant response rating (redroot pigweed; [18]): 10
Pigweed plant response rating (redroot pigweed; [19]): 0
Velvetleaf plant response rating (velvetleaf [5]; [15]): 20
Plant response rating, Velvetleaf (velvetleaf [5]; [16]): 30
Velvetleaf plant response rating (velvetleaf [5]; [18]): 5
Velvetleaf plant response rating (velvetleaf [5]; [19]): 0
Plant response rating, Barnyardgrass (barnyardgrass [6]; [20]): 0
Barnyardgrass plant response rating (barnyardgrass [6]; 125 g ai/ha): 0
Barnyardgrass plant response rating (barnyardgrass [6]; 500 g ai/ha): 0
Plant response rating, Barnyardgrass (barnyardgrass [6]; [21]): 0
Plant response rating, Surinam Grass (Surinam grass; [20]): 0
Surinam Grass plant response rating (Surinam grass; 125 g ai/ha): 0
Surinam Grass plant response rating (Surinam grass; 500 g ai/ha): 0
Plant response rating, Surinam Grass (Surinam grass; [21]): 0
Plant response rating, Cocklebur (cocklebur; [20]): 0
Cocklebur plant response rating (cocklebur; 125 g ai/ha): 0
Cocklebur plant response rating (cocklebur; 500 g ai/ha): 0
Plant response rating, Cocklebur (cocklebur; [21]): 0
Plant response rating, Corn (corn; [20]): 0
Corn plant response rating (corn; 125 g ai/ha): 0
Corn plant response rating (corn; 500 g ai/ha): 0
Plant response rating, Corn (corn; [21]): 0
Plant response rating, Crabgrass, Large (large crabgrass [7]; [20]): 0
Crabgrass, Large plant response rating (large crabgrass [7]; 125 g ai/ha): 0
Crabgrass, Large plant response rating (large crabgrass [7]; 500 g ai/ha): 0
Plant response rating, Crabgrass, Large (large crabgrass [7]; [21]): 0
Plant response rating, Foxtail, Giant (giant foxtail [8]; [20]): 0
Foxtail, Giant plant response rating (giant foxtail [8]; 125 g ai/ha): 0
Foxtail, Giant plant response rating (giant foxtail [8]; 500 g ai/ha): 0
Plant response rating, Foxtail, Giant (giant foxtail [8]; [21]): 0
Plant response rating, Lambsquarters (lambsquarters; [20]): 0
Lambsquarters plant response rating (lambsquarters; 125 g ai/ha): 0
Lambsquarters plant response rating (lambsquarters; 500 g ai/ha): 0
Plant response rating, Lambsquarters (lambsquarters; [21]): 0
Plant response rating, Morningglory (morningglory [9]; [20]): 0
Morningglory plant response rating (morningglory [9]; 125 g ai/ha): 0
Morningglory plant response rating (morningglory [9]; 500 g ai/ha): 0
Plant response rating, Morningglory (morningglory [9]; [21]): 0
Plant response rating, Pigweed (pigweed; [20]): 0
Pigweed plant response rating (pigweed; 125 g ai/ha): 0
Pigweed plant response rating (pigweed; 500 g ai/ha): 0
Plant response rating, Pigweed (pigweed; [21]): 0
Plant response rating, Rice (rice [10]; [20]): 0
Plant response rating, Rice (rice [10]; [21]): 0
Plant response rating, Velvetleaf (velvetleaf [11]; [20]): 0
Velvetleaf plant response rating (velvetleaf [11]; 125 g ai/ha): 0
Velvetleaf plant response rating (velvetleaf [11]; 500 g ai/ha): 0
Plant response rating, Velvetleaf (velvetleaf [11]; [21]): 0
Blackgrass plant response rating (blackgrass; 125 g ai/ha): 0
Blackgrass plant response rating (blackgrass; 500 g ai/ha): 0
Wheat plant response rating (wheat): 0
Oat, Wild plant response rating (wild oat; 125 g ai/ha): 0
Oat, Wild plant response rating (wild oat; 500 g ai/ha): 0
Rice plant response rating (rice [12]): 0
Sedge, Umbrella plant response rating [13]: 30
Ducksalad plant response rating (ducksalad): 0
Barnyardgrass plant response rating (barnyardgrass [14]): 0

— patent US20060069132A1, “Azolecarboxamide herbicides” (priority 2004, published 2006)
